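Cultured in 96-well plates, cells were exposed to test compound for 48 hours across five concentrations. TGI denotes the concentration required for complete inhibition of growth.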
How the values were obtained:
Experiment in all cases: DTP human tumour cell line panel, 48 h
[1] = tested on: HCT-116 colon
[2] = tested on: UACC-257 melanoma
[3] = tested on: HCC-2998 colon
[4] = tested on: SNB-19 CNS
[5] = tested on: EKVX NSCLC
[6] = tested on: MDA-MB-231 breast
[7] = tested on: SK-OV-3 ovarian
[8] = tested on: MOLT-4 leukemia
[9] = tested on: PC-3 prostate
[10] = tested on: OVCAR-3 ovarian
[11] = tested on: KM12 colon
[12] = tested on: K-562 leukemia
[13] = tested on: 786-0 renal
[14] = tested on: NCI-H23 lung
[15] = tested on: HT29 colon
[16] = tested on: LOX IMVI melanoma
[17] = tested on: SF-268 CNS
[18] = tested on: MDA-MB-435
[19] = tested on: DU-145 prostate

Row | SMILES | TGI [1] [µM] | TGI [2] [µM] | TGI [3] [µM] | TGI [4] [µM] | TGI [5] [µM] | TGI [6] [µM] | TGI [7] [µM] | TGI [8] [µM] | TGI [9] [µM] | TGI [10] [µM] | TGI [11] [µM] | TGI [12] [µM] | TGI [13] [µM] | TGI [14] [µM] | TGI [15] [µM] | TGI [16] [µM] | TGI [17] [µM] | TGI [18] [µM] | TGI [19] [µM]
1 | Cn1c(=O)n2n(c1=O)[C@@H](c1ccccc1)[C@H]2c1ccccc1 | > 100 | > 100 | > 100 | > 100 | > 100 | > 100 | > 100 | > 100 | > 100 | > 100 | > 100 | > 100 | > 100 | > 100 | > 100 | > 100 |  |  | 
2 | Cn1nc2ccccc2cc1=O | > 100 | > 100 | > 100 | > 100 | > 100 |  | > 100 |  |  | > 100 | > 100 | > 100 | > 100 | > 100 | > 100 | > 100 | > 100 |  | 
3 | Cc1ccc(S(=O)(=O)Nn2c(O)c(C#N)c(-c3ccc(N(C)C)cc3)c(C#N)c2=O)cc1 | > 50 | > 50 | > 50 | > 50 | > 50 | > 50 | 27.4 | > 50 | > 50 |  | > 50 | > 50 | > 50 |  | > 50 | > 50 | > 50 | > 50 | 
4 | CC1c2cc(c3c(c2O)CN([C@@H](C)C2CCCCC2)CO3)C(C)c2cc(c3c(c2O)CN([C@@H](C)C2CCCCC2)CO3)C(C)c2cc(c3c(c2O)CN([C@@H](C)C2CCCCC2)CO3)C(C)c2cc1c1c(c2O)CN([C@@H](C)C2CCCCC2)CO1 (stereo not given in full) | 2.04 | 3.24 | 2.82 | 3.44 | 2.45 | 2.7 | 2.72 | 9.63 |  | 2.93 | 2.15 | 2.01 | 2.4 |  | 1.26 |  | 2.85 | 3.62 | 2.64
5 | O=C(OCc1ccccc1)N1CCCc2c(n(S(=O)(=O)c3ccccc3)c3ccccc23)C1 | > 100 | > 100 |  | > 100 | > 100 | > 100 | > 100 | > 100 | > 100 | > 100 | > 100 | > 100 | > 100 | > 100 | > 100 | > 100 | > 100 |  | > 100
6 | O=C(/C=C/c1ccc2c(c1)OCO2)CC(=O)/C=C/c1ccc2c(c1)OCO2 | > 100 |  | > 100 | > 100 | > 100 | > 100 | > 100 | > 100 | > 100 | > 100 | 10.8 | > 100 | > 100 | > 100 | > 100 | > 100 |  | > 100 | 
7 | Fc1ccc2c3c([nH]c2c1)CCNC3 | > 100 | > 100 | > 100 | > 100 | > 100 | > 100 | > 100 | > 100 |  |  | > 100 | > 100 | > 100 | > 100 | > 100 | > 100 | > 100 | > 100 | > 100
8 | COc1ccc(C(SCC(N)C(=O)O)(c2ccc(OC)cc2)c2ccc(OC)cc2)cc1 (stereo not given) | 15.6 | 17.3 | 17.4 | 22.6 | 21.9 | 19.6 | 72.3 | 24 | 17.9 | 17.1 | 16.2 | > 31.6 | 20.3 | 20.6 | 16.7 | 17.2 | 19.9 | 10.8 | 
9 | CN(C)c1nc(=NCc2cccnc2)ss1 |  | > 10 |  |  | > 10 | > 10 | > 10 | > 10 | > 10 |  | > 10 | > 10 | > 10 | > 10 | > 10 | > 10 | > 10 | > 10 | > 10
10 | COC(=O)C1(C(=O)OC)CC2=C(S(=O)(=O)c3ccccc3)C[C@H](C#N)[C@H]2C1 | > 100 | > 100 |  | > 100 | > 100 | > 100 | > 100 | > 100 | > 100 |  | > 100 |  | > 100 | > 100 | > 100 | > 100 | > 100 | > 100 | > 100
11 | C#CCCOC(=O)c1ccccc1OC(C)=O | > 100 | > 100 |  | > 100 | > 100 | > 100 | > 100 | > 100 | > 100 | > 100 | > 100 | > 100 | > 100 | > 100 |  | > 100 | > 100 | > 100 | > 100
12 | O=C(Nc1ccc(Cl)cc1)NS(=O)(=O)c1c(-c2ccccc2)oc2ccccc2c1=O | > 100 | > 100 | > 100 | > 100 | > 100 |  | > 100 | > 100 | > 100 |  | > 100 | > 100 | > 100 | > 100 | > 100 | > 100 | > 100 | > 100 | > 100
